Assay results reported in the NIST ThermoML archive (doi:10.1016/j.fluid.2012.08.020).
“And” between values parts separate entries of the source, which are not always exact repeats. Equal entries are not always repeated. ± gives the expanded uncertainty stated by the source.

Tests used:
[1] = Liquid
[2] = molar enthalpy of vaporization or sublimation; details: Liquid, Calvet Calorimetry

Cc1cccc(-c2ccccc2)c1 [3-methylbiphenyl]
[1], Transpiration method
Details	vapor or sublimation pressure [kPa]
318.8 K	0.00702 ± 0.0005
320.4 K	0.00797 ± 0.00057
323.3 K	0.01012 ± 0.00072
325.5 K	0.01178 ± 0.00084
328.1 K	0.01408 ± 0.001
330.3 K	0.01692 ± 0.0012
333.1 K	0.02024 ± 0.0014
336.1 K	0.02586 ± 0.0018
338.5 K	0.03025 ± 0.0021
340.4 K	0.03425 ± 0.0024
343.2 K	0.04154 ± 0.0029
346.4 K	0.05071 ± 0.0036
348.5 K	0.05569 ± 0.0039
350.8 K	0.06543 ± 0.0046
353.7 K	0.07738 ± 0.0055
356.2 K	0.09688 ± 0.0069
358.3 K	0.1068 ± 0.0075
360.8 K	0.1231 ± 0.0087
363.6 K	0.1459 ± 0.01
365.8 K	0.1642 ± 0.012

CC(C)c1cccc(-c2ccccc2)c1 [3-(1-Methylethyl)-1,1'-biphenyl]
[1]
Details	vapor or sublimation pressure
302.8 K, Transpiration method	0.00045 ± 3e-05 kPa
303.3 K, Transpiration method	0.00044 ± 3e-05 kPa
305.9 K, Transpiration method	0.00061 ± 4e-05 kPa
307.8 K, Transpiration method	0.0007 ± 5e-05 kPa
309.9 K, Transpiration method	0.0009 ± 7e-05 kPa
312.9 K, Transpiration method	0.00122 ± 9e-05 kPa
313.3 K, Transpiration method	0.00116 ± 9e-05 kPa
315.9 K, Transpiration method	0.00146 ± 0.00011 kPa
317.9 K, Transpiration method	0.00187 ± 0.00014 kPa
319.9 K, Transpiration method	0.00217 ± 0.00015 kPa
322.9 K, Transpiration method	0.00265 ± 0.0002 kPa and 0.00276 ± 0.00023 kPa
323.3 K, Transpiration method	0.0025 ± 0.00019 kPa
325.8 K, Transpiration method	0.00378 ± 0.00027 kPa
327.8 K, Transpiration method	0.00388 ± 0.00027 kPa
328 K, Transpiration method	0.00408 ± 0.00029 kPa
329.8 K, Transpiration method	0.00479 ± 0.00035 kPa
332.3 K, Transpiration method	0.00644 ± 0.00046 kPa
332.8 K, Transpiration method	0.0062 ± 0.00043 kPa
333.3 K, Transpiration method	0.0064 ± 0.00046 kPa and 0.00674 ± 0.00048 kPa and 0.0065 ± 0.00047 kPa
333.4 K, Transpiration method	0.00634 ± 0.00046 kPa and 0.00708 ± 0.00051 kPa
335.3 K, Transpiration method	0.0078 ± 0.00057 kPa
335.8 K, Transpiration method	0.00832 ± 0.00058 kPa
336.3 K, Transpiration method	0.00811 ± 0.00059 kPa and 0.0082 ± 0.00059 kPa
337.3 K, Transpiration method	0.00945 ± 0.00067 kPa
337.7 K, Transpiration method	0.00887 ± 0.00062 kPa
338 K, Transpiration method	0.00931 ± 0.00071 kPa
338.3 K, Transpiration method	0.00975 ± 0.00074 kPa
340.3 K, Transpiration method	0.01113 ± 0.00079 kPa
342.3 K, Transpiration method	0.01244 ± 0.0009 kPa
343.1 K, Transpiration method	0.01478 ± 0.0011 kPa and 0.01437 ± 0.001 kPa
343.3 K, Transpiration method	0.01376 ± 0.00099 kPa and 0.01441 ± 0.001 kPa
345.3 K, Transpiration method	0.01629 ± 0.0012 kPa and 0.01561 ± 0.0011 kPa
347.3 K, Transpiration method	0.01952 ± 0.0014 kPa and 0.01755 ± 0.0012 kPa
348.3 K, Transpiration method	0.01973 ± 0.0014 kPa and 0.02029 ± 0.0014 kPa and 0.02064 ± 0.0014 kPa
349.3 K, Transpiration method	0.02026 ± 0.0014 kPa
351.3 K, Transpiration method	0.02423 ± 0.0017 kPa
353.2 K, Transpiration method	0.02884 ± 0.0021 kPa
353.3 K, Transpiration method	0.02848 ± 0.0021 kPa
358.2 K, Transpiration method	0.04134 ± 0.0029 kPa
434.53 K, Ebulliometric method (Recirculating still)	2.17 ± 0.1 kPa
452.99 K, Ebulliometric method (Recirculating still)	4.346 ± 0.1 kPa
467.03 K, Ebulliometric method (Recirculating still)	7.152 ± 0.1 kPa
479.19 K, Ebulliometric method (Recirculating still)	10.66 ± 0.1 kPa
486.79 K, Ebulliometric method (Recirculating still)	13.5 ± 0.1 kPa
494.39 K, Ebulliometric method (Recirculating still)	16.96 ± 0.1 kPa
501.93 K, Ebulliometric method (Recirculating still)	21.07 ± 0.1 kPa
511.48 K, Ebulliometric method (Recirculating still)	27.41 ± 0.1 kPa
519.96 K, Ebulliometric method (Recirculating still)	34.27 ± 0.1 kPa
529.73 K, Ebulliometric method (Recirculating still)	43.86 ± 0.1 kPa
539.88 K, Ebulliometric method (Recirculating still)	56.03 ± 0.1 kPa
550.47 K, Ebulliometric method (Recirculating still)	71.52 ± 0.11 kPa
562.29 K, Ebulliometric method (Recirculating still)	92.61 ± 0.11 kPa
573.95 K, Ebulliometric method (Recirculating still)	118.1 ± 0.11 kPa

Details	Normal boiling temperature, Ebulliometric method (Recirculating still) [°C]	molar enthalpy, 323.15 K [kcal/mol]	molar enthalpy, 333.15 K [kcal/mol]	molar enthalpy, 343.15 K [kcal/mol]	molar enthalpy, 353.15 K [kcal/mol]	molar enthalpy, 363.15 K [kcal/mol]	molar enthalpy, 373.15 K [kcal/mol]
[1]	293.39 ± 0.2	–	–	–	–	–	–
[2]	–	17.8 ± 0.239	17.5 ± 0.263	17.3 ± 0.263	17.1 ± 0.239	16.8 ± 0.239	16.6 ± 0.239

CC(C)(C)c1ccc(-c2ccccc2)cc1 [4-(1,1-dimethylethyl)-1,1'-biphenyl]
[1], Ebulliometric method (Recirculating still)
Details	vapor or sublimation pressure [kPa]
448.41 K	2.117 ± 0.1
467.65 K	4.346 ± 0.1
482.23 K	7.152 ± 0.1
494.83 K	10.66 ± 0.1
502.69 K	13.5 ± 0.1
510.59 K	16.96 ± 0.1
518.4 K	21.07 ± 0.1
528.31 K	27.41 ± 0.1
537.1 K	34.27 ± 0.1
547.22 K	43.86 ± 0.1
557.74 K	56.03 ± 0.1
568.72 K	71.52 ± 0.11
580.98 K	92.61 ± 0.11
593.09 K	118.1 ± 0.11

Details	Normal boiling temperature [°C]
[1], Ebulliometric method (Recirculating still)	312.24 ± 0.2
